Reference: US20250197389A1, “NITROGEN-CONTAINING HETEROCYCLIC COMPOUND” (SHANGHAI SHIJIANG BIOTECHNOLOGY CO., LTD, priority 2022, published 2025)

Experiments:
mPTP-active Daoy cell = experiment: Inhibitory effect on mPTP-active Daoy cell (Promega CellTiter-Glo, intracellular ATP); assay type: cell-based, human; details: Daoy cell transfected with empty virus vector without PPIF shRNA
mPTP-inactive Daoy cell = experiment: Inhibitory effect on mPTP-inactive Daoy cell (PPIF shRNA; Promega CellTiter-Glo, intracellular ATP); assay type: cell-based, human; details: Daoy cell transfected with virus vector carrying PPIF shRNA
Text: The activity of mitochondria permeability transition pore (mPTP) was regulated by the PPIF protein. […] PPIF protein activity was restricted by the expression level of PPIF protein in cell.

## [2H]C([2H])([2H])Oc1c(OC)ccc2c1C(C1CCCC1)N1CCc3cc4c(cc3C1=C2)OCO4 (centres unmarked) [AB36501]
mPTP-active Daoy cell; Homo sapiens, Daoy
  IC50: 12.9 µM
mPTP-inactive Daoy cell; Homo sapiens, Daoy
  IC50: 3.43 µM

## COc1ccc2c(c1OC)C(C(Cl)(Cl)Cl)N1CCc3cc4c(cc3C1=C2CCc1ccccc1)OCO4 (centres unmarked) [AB35444]
mPTP-active Daoy cell; Homo sapiens, Daoy
  IC50: 6.85 µM
mPTP-inactive Daoy cell; Homo sapiens, Daoy
  IC50: 3.33 µM

## COc1ccc2c(c1OC)C(C1CCCC1)N1CCc3cc4c(cc3C1=C2Cc1ccc(C(C)C)cc1)OCO4 (centres unmarked) [AB35460]
mPTP-active Daoy cell; Homo sapiens, Daoy
  IC50: 1.96 µM
mPTP-inactive Daoy cell; Homo sapiens, Daoy
  IC50: 0.78 µM

## COc1ccc2c(c1OCCCc1ccccc1)C(C(Cl)(Cl)Cl)N1CCc3cc4c(cc3C1=C2)OCO4 (centres unmarked) [AB35525]
mPTP-active Daoy cell; Homo sapiens, Daoy
  IC50: 2.48 µM
mPTP-inactive Daoy cell; Homo sapiens, Daoy
  IC50: 0.7 µM

## CCCCCC1c2c(ccc3c2OCO3)C=C2c3cc4c(cc3CCN21)OCO4 (centres unmarked) [AB36433]
mPTP-active Daoy cell; Homo sapiens, Daoy
  IC50: 1.92 µM
mPTP-inactive Daoy cell; Homo sapiens, Daoy
  IC50: 0.58 µM

## COc1ccc2c(c1OCCCCl)C(C(Cl)(Cl)Cl)N1CCc3cc4c(cc3C1=C2)OCO4 (centres unmarked) [AB35441]
mPTP-active Daoy cell; Homo sapiens, Daoy
  IC50: 2.88 µM
mPTP-inactive Daoy cell; Homo sapiens, Daoy
  IC50: 1.27 µM

## COc1ccc2c(c1OC)C(CC(C)=O)N1CCc3cc4c(cc3C1=C2)OCO4 (centres unmarked) [AB36472]
mPTP-active Daoy cell; Homo sapiens, Daoy
  IC50: 15.8 µM
mPTP-inactive Daoy cell; Homo sapiens, Daoy
  IC50: 15.9 µM

## COc1ccc2c(c1OCCCCCCCl)C(C1CCCC1)N1CCc3cc4c(cc3C1=C2)OCO4 (centres unmarked) [AB35440]
mPTP-active Daoy cell; Homo sapiens, Daoy
  IC50: 2.36 µM
mPTP-inactive Daoy cell; Homo sapiens, Daoy
  IC50: 1.14 µM

## COc1ccc2c(c1OC)C(C1CCCCC1=O)N1CCc3cc4c(cc3C1=C2)OCO4 (centres unmarked) [AB36525]
mPTP-active Daoy cell; Homo sapiens, Daoy
  IC50: 1.5 µM
mPTP-inactive Daoy cell; Homo sapiens, Daoy
  IC50: 1.65 µM

## CCOc1c(OC)ccc2c1C(C(Cl)(Cl)Cl)N1CCc3cc4c(cc3C1=C2)OCO4 (centres unmarked) [AB35499]
mPTP-active Daoy cell; Homo sapiens, Daoy
  IC50: 6.45 µM
mPTP-inactive Daoy cell; Homo sapiens, Daoy
  IC50: 3.15 µM

## COc1ccc2c(c1OC)C(C)N1CCc3cc4c(cc3C1=C2CCCc1ccccc1)OCO4 (centres unmarked) [AB35411]
mPTP-active Daoy cell
  IC50: 3.51 µM
mPTP-inactive Daoy cell
  IC50: 1.78 µM

## COc1ccc2c(c1OC)C(C1CCCC1)N1CCc3cc4c(cc3C1C2)OCO4 (centres unmarked) [AB36497]
mPTP-active Daoy cell; Homo sapiens, Daoy
  IC50: 67.4 µM
mPTP-inactive Daoy cell; Homo sapiens, Daoy
  IC50: 69 µM

## C1=C2c3cc4c(cc3CCN2Cc2cc3c(cc21)OCO3)OCO4 [AB36428]
mPTP-active Daoy cell; Homo sapiens, Daoy
  IC50: 0.92 µM
mPTP-inactive Daoy cell; Homo sapiens, Daoy
  IC50: 0.4 µM

## COc1ccc2c(c1OCCCF)C(C(Cl)(Cl)Cl)N1CCc3cc4c(cc3C1=C2)OCO4 (centres unmarked) [AB35478]
mPTP-active Daoy cell; Homo sapiens, Daoy
  IC50: 3.78 µM
mPTP-inactive Daoy cell; Homo sapiens, Daoy
  IC50: 1.51 µM

## [2H]C1c2c(ccc(OC)c2OC)C=C2c3cc4c(cc3CC([2H])([2H])N21)OCO4 (centres unmarked) [AB36477]
mPTP-active Daoy cell; Homo sapiens, Daoy
  IC50: 2.54 µM
mPTP-inactive Daoy cell; Homo sapiens, Daoy
  IC50: 1.32 µM

## CCCOc1c(OC)ccc2c1C(C(Cl)(Cl)Cl)N1CCc3cc4c(cc3C1=C2)OCO4 (centres unmarked) [AB35506]
mPTP-active Daoy cell; Homo sapiens, Daoy
  IC50: 3.45 µM
mPTP-inactive Daoy cell; Homo sapiens, Daoy
  IC50: 1.49 µM

## CCCCCCC1c2c(ccc3c2OCO3)C=C2c3cc4c(cc3CCN21)OCO4 (centres unmarked) [AB35426]
mPTP-active Daoy cell; Homo sapiens, Daoy
  IC50: 2.71 µM
mPTP-inactive Daoy cell; Homo sapiens, Daoy
  IC50: 1.03 µM

## COc1ccc2c(c1Br)CN1CCc3cc4c(cc3C1=C2)OCO4 [AB36460]
mPTP-active Daoy cell; Homo sapiens, Daoy
  IC50: 2.71 µM
mPTP-inactive Daoy cell; Homo sapiens, Daoy
  IC50: 1.27 µM

## COc1ccc2c(c1OC)C(C)N1CCc3cc4c(cc3C1=C2CCCCc1ccccc1)OCO4 (centres unmarked) [AB35468]
mPTP-active Daoy cell; Homo sapiens, Daoy
  IC50: 2.29 µM
mPTP-inactive Daoy cell; Homo sapiens, Daoy
  IC50: 1.05 µM

## COc1ccc2c(c1NCCc1ccccc1)C(C)N1CCc3cc4c(cc3C1=C2)OCO4 (centres unmarked) [AB31895]
mPTP-active Daoy cell; Homo sapiens, Daoy
  IC50: 3.15 µM
mPTP-inactive Daoy cell; Homo sapiens, Daoy
  IC50: 1.46 µM

## COc1ccc2c(c1N1CCN(C)CC1)C(C(Cl)(Cl)Cl)N1CCc3cc4c(cc3C1=C2)OCO4 (centres unmarked) [AB35518]
mPTP-active Daoy cell; Homo sapiens, Daoy
  IC50: 8.25 µM
mPTP-inactive Daoy cell; Homo sapiens, Daoy
  IC50: 3.08 µM

## COc1ccc2c(c1OC)C(C)N1CCc3cc4c(cc3C1=C2CCCc1ccccc1)OCO4 (centres unmarked) [AB35493]
mPTP-active Daoy cell; Homo sapiens, Daoy
  IC50: 3.33 µM
mPTP-inactive Daoy cell; Homo sapiens, Daoy
  IC50: 1.02 µM

## COc1ccc2c(c1OCCCCNC(=O)OC(C)(C)C)C(C(Cl)(Cl)Cl)N1CCc3cc4c(cc3C1=C2)OCO4 (centres unmarked) [AB35423]
mPTP-active Daoy cell
  IC50: 4.82 µM
mPTP-inactive Daoy cell
  IC50: 2.36 µM

## COc1ccc2c(c1N1CCN(C)CC1)C(C1CCCC1)N1CCc3cc4c(cc3C1=C2)OCO4 (centres unmarked) [AB35519]
mPTP-active Daoy cell
  IC50: 13.6 µM
mPTP-inactive Daoy cell
  IC50: 6.03 µM

## COc1ccc2c(c1OCCNC(=O)OC(C)(C)C)C(C(Cl)(Cl)Cl)N1CCc3cc4c(cc3C1=C2)OCO4 (centres unmarked) [AB35416]
mPTP-active Daoy cell; Homo sapiens, Daoy
  IC50: 10.6 µM
mPTP-inactive Daoy cell; Homo sapiens, Daoy
  IC50: 5.11 µM

## CCOc1c(OC)ccc2c1CN1CCc3cc4c(cc3C1=C2)OCO4 [AB35594]
mPTP-active Daoy cell; Homo sapiens, Daoy
  IC50: 2.66 µM
mPTP-inactive Daoy cell; Homo sapiens, Daoy
  IC50: 1.1 µM

## COc1ccc2c(c1OCCCCCCCl)C(C(Cl)(Cl)Cl)N1CCc3cc4c(cc3C1=C2)OCO4 (centres unmarked) [AB35475]
mPTP-active Daoy cell; Homo sapiens, Daoy
  IC50: 2.64 µM
mPTP-inactive Daoy cell; Homo sapiens, Daoy
  IC50: 1.23 µM

## COc1ccc2c(c1OC)C(c1ccncc1)N1CCc3cc4c(cc3C1=C2)OCO4 (centres unmarked) [AB36488]
mPTP-active Daoy cell; Homo sapiens, Daoy
  IC50: 27 µM
mPTP-inactive Daoy cell; Homo sapiens, Daoy
  IC50: 26.9 µM

## COc1ccc2c(c1OCCCBr)C(C1CCCC1)N1CCc3cc4c(cc3C1=C2)OCO4 (centres unmarked) [AB35430]
mPTP-active Daoy cell; Homo sapiens, Daoy
  IC50: 5.07 µM
mPTP-inactive Daoy cell; Homo sapiens, Daoy
  IC50: 2.38 µM

## COc1ccc2c(c1OCCN(C)C)C(C(Cl)(Cl)Cl)N1CCc3cc4c(cc3C1=C2)OCO4 (centres unmarked) [AB35446]
mPTP-active Daoy cell; Homo sapiens, Daoy
  IC50: 16.2 µM
mPTP-inactive Daoy cell; Homo sapiens, Daoy
  IC50: 17.6 µM

## COc1ccc2c(c1OC)C(C)N1CCc3cc4c(cc3C1=C2CCc1ccccc1)OCO4 (centres unmarked) [AB35498]
mPTP-active Daoy cell; Homo sapiens, Daoy
  IC50: 6.35 µM
mPTP-inactive Daoy cell; Homo sapiens, Daoy
  IC50: 3.1 µM

## COc1ccc2c(c1OC)C(=C(Cl)Cl)N1CCc3cc4c(cc3C1=C2)OCO4 [AB36512]
mPTP-active Daoy cell; Homo sapiens, Daoy
  IC50: 6.42 µM
mPTP-inactive Daoy cell; Homo sapiens, Daoy
  IC50: 7.09 µM

## CCCCCCC1=C2c3cc4c(cc3CCN2C(C(Cl)(Cl)Cl)c2c1ccc(OC)c2OC)OCO4 (centres unmarked) [AB35508]
mPTP-active Daoy cell; Homo sapiens, Daoy
  IC50: 2.25 µM
mPTP-inactive Daoy cell; Homo sapiens, Daoy
  IC50: 0.99 µM

## COc1ccc2c(c1OCCCN1CCCCC1)C(C)N1CCc3cc4c(cc3C1=C2)OCO4 (centres unmarked) [AB35442]
mPTP-active Daoy cell; Homo sapiens, Daoy
  IC50: 10.7 µM
mPTP-inactive Daoy cell; Homo sapiens, Daoy
  IC50: 11.4 µM
